Entries after “also recorded” stand apart in the source; their conditions may differ.
What was measured:
AChE from electric eel = biological target: T1, AChE from electric eel (Electrophorus electricus, UniProt O42275); assay: EeAChE inhibition assay (Ellman's method); format: biochemical; conditions: read-out: AChE % inhibition at 20 µM; AChE from electric eel; 20 µM; na = no inhibitory activity at 20 µM
T1 construct: assays were performed on AChE from electric eel (C3389-500UN; Sigma); purchased Sigma C3389-500UN
T1 sequence (O42275 24-633): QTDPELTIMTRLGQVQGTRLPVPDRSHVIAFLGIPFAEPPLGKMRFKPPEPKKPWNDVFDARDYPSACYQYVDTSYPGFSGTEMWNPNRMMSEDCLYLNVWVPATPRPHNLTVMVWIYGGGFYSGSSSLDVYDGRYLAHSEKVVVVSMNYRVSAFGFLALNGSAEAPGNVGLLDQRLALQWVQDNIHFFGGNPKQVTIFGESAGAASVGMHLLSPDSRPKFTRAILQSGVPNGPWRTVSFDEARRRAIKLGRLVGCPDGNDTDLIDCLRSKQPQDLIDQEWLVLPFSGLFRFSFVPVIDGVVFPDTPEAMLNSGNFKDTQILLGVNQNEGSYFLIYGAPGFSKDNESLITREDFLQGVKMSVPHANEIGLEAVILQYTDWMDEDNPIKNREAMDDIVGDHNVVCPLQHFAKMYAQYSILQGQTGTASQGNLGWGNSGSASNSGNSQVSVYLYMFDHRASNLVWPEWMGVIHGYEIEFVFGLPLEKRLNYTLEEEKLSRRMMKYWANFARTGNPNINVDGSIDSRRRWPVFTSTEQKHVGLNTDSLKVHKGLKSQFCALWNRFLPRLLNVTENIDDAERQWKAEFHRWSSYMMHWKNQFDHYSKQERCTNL
Method: (§2) According to the Ellman’s method, assays were performed on AChE from electric eel (C3389-500UN; Sigma) and BuChE from equine serum (C4290-1KU; Sigma). The experiment was performed in 48-well plates in a final volume of 500 µL. Each well contained 0.036 U/mL of eeAChE or eqBuChE, and 0.1 M pH 8 PBS. They were pre-incubated for 20 min at different compound concentrations at 37 °C. […] The DTNB produces the yellow anion 5-thio-2-nitrobenzoic acid along with the enzymatic degradation of ACh or BuCh. Changes in absorbance were measured at 410 nm after 20 min in a PerkinElmer VICTOR Nivo reader. The IC50 values were calculated graphically from inhibition curves (log inhibitor concentration vs percent of inhibition). A control experiment was performed under the same conditions without inhibitor and the blank contained buffer, DMSO, DTNB, and substrate.

BuChE from equine serum = biological target: T2, BuChE from equine serum (Equus caballus, UniProt P81908); assay: eqBuChE inhibition assay (Ellman's method); format: biochemical; conditions: BuChE from horse serum; mean ± SEM
T2 construct: BuChE from equine serum (C4290-1KU; Sigma); purchased Sigma C4290-1KU; host or cells: equine serum
T2 sequence (P81908 whole entry): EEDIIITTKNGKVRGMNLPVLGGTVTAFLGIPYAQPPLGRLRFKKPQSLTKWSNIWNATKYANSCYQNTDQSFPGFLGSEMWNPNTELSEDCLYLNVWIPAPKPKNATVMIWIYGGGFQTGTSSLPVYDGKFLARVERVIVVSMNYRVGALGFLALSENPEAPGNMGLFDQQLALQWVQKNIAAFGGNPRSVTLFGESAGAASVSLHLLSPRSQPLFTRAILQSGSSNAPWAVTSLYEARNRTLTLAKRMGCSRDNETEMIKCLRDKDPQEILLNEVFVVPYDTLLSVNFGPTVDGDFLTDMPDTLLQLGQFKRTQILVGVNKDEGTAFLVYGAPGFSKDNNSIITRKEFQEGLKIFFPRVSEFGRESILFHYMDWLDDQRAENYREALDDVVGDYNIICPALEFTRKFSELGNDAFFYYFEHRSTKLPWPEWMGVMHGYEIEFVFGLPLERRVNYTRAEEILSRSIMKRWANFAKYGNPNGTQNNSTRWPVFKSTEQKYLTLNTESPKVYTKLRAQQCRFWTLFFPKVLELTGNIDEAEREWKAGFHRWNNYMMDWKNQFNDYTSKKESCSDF
Method: as §2

[1] = biological target: T3, recombinant human AChE (hAChE) (Homo sapiens, UniProt P22303); assay: hAChE inhibition assay (Ellman's assay); format: biochemical
T3 construct: purchased Sigma C1682
T3 sequence (P22303 32-614): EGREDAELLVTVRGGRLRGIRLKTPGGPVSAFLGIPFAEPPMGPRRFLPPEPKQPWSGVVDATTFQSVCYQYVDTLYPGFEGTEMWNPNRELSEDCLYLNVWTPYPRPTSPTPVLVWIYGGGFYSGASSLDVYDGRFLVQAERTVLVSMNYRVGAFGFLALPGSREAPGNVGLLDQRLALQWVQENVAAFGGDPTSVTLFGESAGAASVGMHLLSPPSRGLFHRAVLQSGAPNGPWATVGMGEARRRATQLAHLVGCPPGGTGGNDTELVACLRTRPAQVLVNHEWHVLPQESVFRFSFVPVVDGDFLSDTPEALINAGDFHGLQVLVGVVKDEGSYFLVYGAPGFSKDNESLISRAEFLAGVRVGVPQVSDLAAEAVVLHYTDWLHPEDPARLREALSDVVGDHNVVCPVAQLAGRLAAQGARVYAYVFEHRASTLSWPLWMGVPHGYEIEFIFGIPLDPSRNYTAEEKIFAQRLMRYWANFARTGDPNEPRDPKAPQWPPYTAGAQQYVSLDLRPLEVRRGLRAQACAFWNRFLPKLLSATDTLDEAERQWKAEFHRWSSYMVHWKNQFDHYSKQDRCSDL
Method: The solution was diluted to 5 concentrations of 200, 100, 10, 1 and 0.1 µM in ethanol. Measurements were performed using 96-well plates. Buffer (40 µL), sample at a series of concentrations (10 µL), AChE (10 µL), and dibutyl succinate (20 µL) were successively added. The mixture was then incubated for 5 min at 37 °C. Then, 20 µL of ACh or BuCh were added and the reaction started. […] For the blank value, 10 µL of water was used instead of the inhibitor solution. The activity of the inhibitor was expressed as a logarithmic plot of the percentage of enzyme activity (with 100% as the reference) versus the concentration of the compound. IC50 values were determined graphically from inhibition curves (log inhibitor concentration versus percent inhibition).

[2] = biological target: T4, BuChE from human serum (hBuChE) (Homo sapiens, UniProt P06276); assay: hBuChE inhibition assay (Ellman's assay); format: biochemical; conditions: mean ± SEM
T4 construct: BuChE from human serum (hBuChE); purchased Sigma B4186; host or cells: human serum
T4 sequence (P06276 29-602): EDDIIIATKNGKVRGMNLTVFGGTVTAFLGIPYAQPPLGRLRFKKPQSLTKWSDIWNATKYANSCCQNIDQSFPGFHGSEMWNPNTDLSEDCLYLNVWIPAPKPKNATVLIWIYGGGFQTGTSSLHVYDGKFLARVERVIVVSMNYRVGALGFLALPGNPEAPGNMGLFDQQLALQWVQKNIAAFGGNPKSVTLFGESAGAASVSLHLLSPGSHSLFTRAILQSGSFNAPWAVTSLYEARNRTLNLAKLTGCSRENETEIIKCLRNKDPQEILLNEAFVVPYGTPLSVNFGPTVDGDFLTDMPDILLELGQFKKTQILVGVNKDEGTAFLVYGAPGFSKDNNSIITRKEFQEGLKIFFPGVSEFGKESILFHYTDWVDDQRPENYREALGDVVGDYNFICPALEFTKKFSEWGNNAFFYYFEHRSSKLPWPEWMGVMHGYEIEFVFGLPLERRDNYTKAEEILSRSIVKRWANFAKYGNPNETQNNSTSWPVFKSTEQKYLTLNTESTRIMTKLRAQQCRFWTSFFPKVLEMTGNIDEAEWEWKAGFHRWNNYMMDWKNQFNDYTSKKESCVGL

eqBuChE = biological target: T5, eqBuChE (Equus caballus, UniProt P81908); assay: Kinetic study of eqBuChE inhibition; format: biochemical, horse
T5 construct: BuChE from equine serum (C4290-1KU; Sigma); purchased Sigma C4290-1KU; host or cells: equine serum
T5 sequence (P81908 whole entry): as the sequence (P81908 whole entry) above
Method: Kinetic studies were performed with the same test conditions, using six concentrations of substrate (0.1‒1 mM) and four concentrations of inhibitor (0‒0.08 mM). The apparent inhibition constants and kinetic parameters were calculated in the “Enzyme Kinetics” module of Prism8. The effect of compound A10 concentration on the catalytic activity of BuChE at 37 °C was investigated. Assay conditions were same as described in the assay protocol except that the final concentration of enzyme was varied (0‒0.72 U/mL). Concentrations of compound A10 were 0, 0.02, 0.04, 0.08 µM respectively, for the determination of reversible as well as irreversible binding of inhibitors at enzyme.

[3] = test system: human normal hepatocyte L02; assay: Cytotoxicity MTT assay on L02 cells; format: cell-based; conditions: 24 h
Method: (§1) The cytotoxic effect was detected by MTT colorimetric assay. Human hepatoblastoma cells HepG2 and human normal hepatocyte L02 were maintained at 37 °C in a 5% humidified incubator containing 10% foetal bovine serum, 100 U/mL penicillin and […] streptomycin. HepG2 cells and L02 cells were seeded in 96-well plates at 1 × 10^4 cells per well. After cell culture for 24 h, different compounds were diluted in DMEM for 24 h. […] of 5 mg/mL MTT reagent was added for incubation for 4 h. After 4 h, the cell culture medium was removed and […] of DMSO was added to dissolve formazan. The optical density was measured at 492 nm (OD492). Cell viability was calculated from three independent experiments. The density of formazan formed in blank group was set as 100% of viability. Cell viability (%) ¼ compound (OD492/blank (OD492) ×100%

[4] = test system: human hepatoblastoma cells HepG2; assay: Cytotoxicity MTT assay on HepG2 cells; format: cell-based; conditions: 24 h
Method: as §1

PC12 cells = assay: Neuroprotection assay against H2O2 damage; format: cell-based; conditions: PC12, 100 µM H2O2 (model 47.3%), not given
ICR mice = assay: In vivo acute toxicity evaluation; parameters: species or system mouse
Method: […]. Compound A10 was suspended in a mixture of DMSO, PEG 400 and physiological saline (10/50/40, v/v/v). After fasting for 8‒12 h, the mice were intragastrically administered with the preparation or test compound A10 1.0 g/kg on the first day. The behaviour, appearance and body weight changes of the mice were observed and recorded for 2 weeks. The body weights of the mice in the control group and experimental group were compared and summarised with GraphPadPrism8.0 software.

[5] = test system: Aβ1-42-induced cognitive dysfunction; assay: Morris water maze in Aβ1-42-induced cognitive impairment model; format: in vivo, mouse; conditions: mice, 10 mg/kg po Day 3 to Day 14
Method: All experiments were performed according to the National Institutes of Health Guide for the Care and Use of Laboratory Animals. The Measures for the Care and Treatment of Laboratory Animals were approved by the Animal Care and Use Committee of Anhui Medical University. Male ICR mice were used in the animal centre of Anhui Medical University (Hefei). Male mice (18‒24 g) aged 6‒8 weeks, 10 mice per cage, room temperature 22 ± 2 °C, light/dark (12:12 h) cycle. These animals had access to food and water prior to testing. The ambient temperature and relative humidity (50%) of the room remained consistent throughout all tests. Behavioural experiments: MWM was used for cognitive function, and mice were randomly selected for behavioural experiments. Each experimental group consisted of 8‒10 mice/dose. The experimental time was from 08:00 to 14:00, and the mice were sacrificed by cervical dislocation immediately after the end of the experiment. […]. Aβ1-42 aggregation was induced by dissolving the Aβ1-42 peptide in DMSO as a stock solution of 5 mM and incubating it in saline at a final concentration of 2 mg/mL for 24 h at 37 °C.
The behavioural study was a water maze experimental behavioural study on days 10 − 15, including a 5-day learning and memory training, and a test assessment on day 6. MWM consists of a water-filled pool (grey, circular, 1.20 m in diameter, 0.60 m in height) and a platform with adjustable height and movable position. The pool was divided into four equal quadrants (compass position: NE, NW, SE, SW) using a computerised video tracking system (SMART, version 3.0; Panlab, Spain). The pool was filled with water, generally about 48 cm below the edge, to prevent animals from jumping out, and the water temperature was maintained at 22 ± 1 °C. […] The time to reach the hidden platform (i.e. escape latency), the distance to reach the hidden platform, the distance in the target (NW) area, and the average speed were recorded. […]

Aβ1-42 = format: in vivo, mouse; conditions: mice, Aβ1-42 icv; 10 mg/kg po; vs model group
Method: In the experiment of Aβ1-42 oligomeric injury, all mice were sacrificed after the end of behavioural study, and the brains were taken to determine the total content of Aβ1-42 with a mouse ELISA kit (Wuhan Huamei Biotechnology Co., Ltd.). Each brain tissue specimen was completely homogenised with a grinder with 10 times PBS (pH = 7.4 ± 0.1) and then centrifuged at 5000×g for 5 min. The supernatant was separated for use. Brain tissue Aβ1-42 content was calculated according to the linear regression equation.

[6] = PAMPA-BBB class
Method: (§3) The 96-well UV plate (COSTAR) was manufactured by Corning Corporation, USA, and the commercially available drugs and test compounds were initially dissolved in DMSO at a concentration of 20 mg/mL. The solution was then diluted 200-fold with PBS (pH 7.4 ± 0.1)/EtOH (70/30, v/v) solution to a final concentration of 100 µg/mL.
(§4) The test compound was dissolved in DMSO at 5 mg/mL and diluted 200-fold with universal buffer (final concentration 25 µg/mL) to prepare the secondary stock solution; 200 µL of the secondary stock solution was added to the donor well; the acceptor plate was coated with 4 µL of 20 mg/mL dodecyl porcine polar brain, and then, 200 µL of pH 7.4 universal buffer was added to the acceptor well; the acceptor plate was carefully placed on the donor plate to form a “sandwich” and maintained for 18 h; the drug concentrations in the acceptor, donor and reference wells were determined using a UV microplate reader; the experiment was repeated three times, and the concentrations of the test compound in the donor and acceptor wells were measured using a UV plate spectral reader (PerkinElmer VICT or Nivo, Finland). In at least three independent experiments, each sample was analysed at three wavelengths in a four well.

in vitro = conditions: PAMPA, PAMPA-BBB
Method: as §3, §4

male ICR mice = assay: In vivo hepatotoxicity evaluation
Method: The combination was administered intragastrically at a dose of 30 mg/kg body weight and the same amount of vehicle (po). Heparinised serum was collected from the retrobulbar plexus at 8, 22, and 36 h after administration for hepatotoxicity evaluation. The activities of alanine aminotransferase (ALT) and aspartate aminotransferase (AST), indicators of liver injury, were measured with corresponding kits (EF551 and EF550 for ALT, EH027 and EH548 for AST). […] After the last collection of post-globular blood, mice were sacrificed and livers were taken for immunohistochemical morphological observation. We isolated two 3-mm sections of each liver from the hilum to the edge of the left lateral lobe using an ultra-thin semi-automatic microtome (LeicaRM2245, Germany), immediately placed them in 10% buffered formaldehyde, fixed them for 2 days, and embedded them in paraffin blocks using a paraffin-embedding station (LeicaEG1150H, Germany). Subsequently, five µM sections were prepared from these paraffin sections, deparaffinized, stained with haematoxylin and eosin or using the periodic acid-Schiff glycogen staining method.

[7] = 30 mg/kg intragastric, 8, 22 and 36 h

**Q.** With `COc1ccccc1C=CC=C(Br)S(=O)(=O)F` [Compound A10] as the compound, how does the inhibition at 20 µM (AChE from electric eel) read?
**A.** 40.8 ± 3.3%

**Q.** And the IC50 (BuChE from equine serum)?
**A.** 21 nM

**Q.** And the inhibition at 20 µM [1]?
**A.** 49.7 ± 2.7%

**Q.** What about the IC50 [2] of the same compound?
**A.** 3620 ± 320 nM

**Q.** And the “type of BuChE inhibition” value (eqBuChE; Lineweaver–Burk plot, eqBuChE)?
**A.** mixed competitive; also recorded: mixed inhibition

**Q.** What about the “reversibility of BuChE inhibition” value (eqBuChE; enzyme activity vs enzyme concentration, 0–0.08 µM inhibitor) of the same compound?
**A.** reversible

**Q.** And the Ki (eqBuChE; eqBuChE, Lineweaver–Burk secondary plot, read-out: dissociation constant Ki)?
**A.** 29 nM

**Q.** What about the cell survival rate ([3]; 50 µM) of the same compound?
**A.** 87.1%

**Q.** And the cell survival rate ([3]; 10 and 25 µM)?
**A.** did not decrease

**Q.** What about the cell survival rate ([4]; 50 µM) of the same compound?
**A.** 85.6%

**Q.** And the cell survival rate ([4]; 10 and 25 µM)?
**A.** did not decrease

**Q.** What about the cell survival rate (PC12 cells; first (lower) of the A10 concentrations) of the same compound?
**A.** 63.3%

**Q.** What about the cell survival rate (PC12 cells; second (higher) of the A10 concentrations) of the same compound?
**A.** 71.8%

**Q.** What about the “general condition, appearance and activity” value (ICR mice; 1.0 g/kg intragastric) of the same compound?
**A.** no significant change in appearance and activity

**Q.** And the “difference of body weight changes vs vehicle group” value (ICR mice; ICR mice, 1.0 g/kg intragastric, 14 days)?
**A.** not significant

**Q.** What about the tolerability in vivo (ICR mice; ICR mice, single intragastric dose 1.0 g/kg, 14 days) of the same compound?
**A.** well tolerated

**Q.** What about the “body weight gain during treatment” value [5] of the same compound?
**A.** did not affect

**Q.** What about the “effect on Aβ1-42-induced cognitive dysfunction (MWM)” value ([5]; Aβ1-42 10 µg icv, 10 mg/kg) of the same compound?
**A.** significantly improved; also recorded: improved the cognitive impairment

**Q.** And the “decrease of brain Aβ1-42 peptides” value (Aβ1-42)?
**A.** 20.6%

**Q.** And the BBB penetration [6]?
**A.** CNS+ (“CNS +” (high BBB permeation): Pe (× 10^‒6 cm/s) >4.0)

**Q.** And the Papp (in vitro; pH 7.4, Pe)?
**A.** 13.7 ×10⁻⁶ cm/s

**Q.** And the Papp (in vitro; pH 7.4, Pe×10^-6cm/s Exp. value, three independent experiments)?
**A.** 13.4 ×10⁻⁶ cm/s

**Q.** What about the “serum ALT vs vehicle group” value (male ICR mice; [7]) of the same compound?
**A.** no significant difference

**Q.** And the “serum AST vs vehicle group” value (male ICR mice; [7])?
**A.** no significant difference

**Q.** And the liver histomorphology (male ICR mice; 30 mg/kg, 36 h after administration)?
**A.** didn’t show central necrosis or significant steatosis

— paper PMC8386747, “Structure–activity relationship, in vitro and in vivo evaluation of novel dienyl sulphonyl fluorides as selective BuChE inhibitors for the treatment of Alzheimer's disease” (Journal of Enzyme Inhibition and Medicinal Chemistry, 2021)
